Source: US12624023B2, “Sulfonylurea derivatives and uses thereof” (NodThera Limited, priority 2019, dated 2026)

Key:
[1] = tested on: IL-1β release upon NLRP3 activation in human whole blood; experiment: Whole blood (WB) assay (IL-1β release, LPS priming + ATP stimulation, HTRF); assay type: cell-based; settings: heparin, diluted 9:5 with media, LPS 1 μg/ml 3 h, compound 30 min, ATP 5 mM 1 h, IL-1β by HTRF
Procedure, shortened: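 Heparinised human whole blood, diluted 9:5 in medium, was primed with LPS (1 μg/ml final) for 3 h. Compound was then added for 30 min, followed by ATP (5 mM final) for 1 h. Secreted IL-1β was measured in the media by HTRF (655/620 nm).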

[2] = tested on: IL-1β release upon NLRP3 activation in peripheral blood mononuclear cells (PBMC); experiment: PBMC IC50 determination assay (IL-1β release, LPS priming + ATP stimulation, HTRF); assay type: cell-based; settings: PBMC from buffy coats; LPS 1 μg/ml 3 h, compound 30 min, ATP 5 mM 1 h; IL-1β by HTRF
Procedure, shortened: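 Buffy-coat PBMC were primed with LPS (1 μg/ml) for 3 h, given compound for 30 min, then stimulated with 5 mM ATP for 1 h. IL-1β released into the medium was quantified by HTRF, reading 655 and 620 nm.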

Compound	IC50 [1]	IC50 [2]
Cc1sc2c(c1NC(=O)NS(=O)(=O)N(c1cnn(C)c1)C1CCN(C)CC1)CCC2 [Compound 109, 1-[(1-Methyl-1H-pyrazol-4-yl)(1-methylpiperidin-4-yl)sulfamoyl]-3-{2-methyl-4H,5H,6H-cyclopenta[b]thiophen-3-yl}urea]	1000 to 3000 nM	100 to 500 nM
Cc1sc2c(c1NC(=O)NS(=O)(=O)N(c1cnn(C)c1)[C@H]1C[C@H](F)CN(C)C1)CCC2 [Compound 110, 1-{[(3S,5S)-5-Fluoro-1-methylpiperidin-3-yl](1-methyl-1H-pyrazol-4-yl)sulfamoyl}-3-{2-methyl-4H,5H,6H-cyclopenta[b]thiophen-3-yl}urea]	1000 to 3000 nM	100 to 500 nM
Cc1cc(NC(=O)NS(=O)(=O)N(c2cnn(C)c2)[C@H]2C[C@H](F)CN(C)C2)c(C(C)C)s1 [Compound 111, 1-{[(3S,5S)-5-Fluoro-1-methylpiperidin-3-yl](1-methyl-1H-pyrazol-4-yl)sulfamoyl}-3-[5-methyl-2-(propan-2-yl)thiophen-3-yl]urea]	1000 to 3000 nM	100 to 500 nM
Cc1cc(NC(=O)NS(=O)(=O)N(c2cnn(C3CC3)c2)C2CCCN(C)C2)c(C(C)C)s1 (stereo not shown) [Compound 112, 1-[(1-Cyclopropyl-1H-pyrazol-4-yl)(1-methylpiperidin-3-yl)sulfamoyl]-3-[5-methyl-2-(propan-2-yl)thiophen-3-yl]urea]	< 1000 nM	< 100 nM
Cc1sc2c(c1NC(=O)NS(=O)(=O)N(c1cnn(C3CC3)c1F)C1CCCN(C)C1)CCC2 (stereo not shown) [Compound 113, 1-[(1-Cyclopropyl-5-fluoro-1H-pyrazol-4-yl)(1-methylpiperidin-3-yl)sulfamoyl]-3-{2-methyl-4H,5H,6H-cyclopenta[b]thiophen-3-yl}urea]	< 1000 nM	< 100 nM
Cc1cc(NC(=O)NS(=O)(=O)N(c2cnn(C3CC3)c2F)C2CCCN(C)C2)c(C(C)C)s1 (stereo not shown) [Compound 114, 1-[(1-Cyclopropyl-5-fluoro-1H-pyrazol-4-yl)(1-methylpiperidin-3-yl)sulfamoyl]-3-[5-methyl-2-(propan-2-yl)thiophen-3-yl]urea]	< 1000 nM	< 100 nM
Cc1cc(NC(=O)NS(=O)(=O)N(c2cnn(C)c2F)C2CCCN(C)C2)c(C(C)C)s1 (stereo not shown) [Compound 115, 1-[(5-Fluoro-1-methyl-1H-pyrazol-4-yl)(1-methylpiperidin-3-yl)sulfamoyl]-3-[5-methyl-2-(propan-2-yl)thiophen-3-yl]urea]	< 1000 nM	< 100 nM
Cc1sc2c(c1NC(=O)NS(=O)(=O)N(c1cnn(C)c1)[C@H]1CCCN(C)C1)CCC2 [Compound 116, 1-[(1-Methyl-1H-pyrazol-4-yl)[(3S)-1-methylpiperidin-3-yl]sulfamoyl]-3-{2-methyl-4H,5H,6H-cyclopenta[b]thiophen-3-yl}urea]	< 1000 nM	< 100 nM
Cc1sc(C(F)(F)F)cc1NC(=O)NS(=O)(=O)N(c1cnn(C)c1)C1CCCN(C)C1 (stereo not shown) [Compound 117, 1-[(1-Methyl-1H-pyrazol-4-yl)(1-methylpiperidin-3-yl)sulfamoyl]-3-[2-methyl-5-(trifluoromethyl)thiophen-3-yl]urea]	< 1000 nM	100 to 500 nM
Cc1sc2c(c1NC(=O)NS(=O)(=O)N(c1cnn(C3CC3)c1)C1CCCN(C)C1)CCC2 (stereo not shown) [Compound 118, 1-[(1-Cyclopropyl-1H-pyrazol-4-yl)(1-methylpiperidin-3-yl)sulfamoyl]-3-{2-methyl-4H,5H,6H-cyclopenta[b]thiophen-3-yl}urea]	< 1000 nM	< 100 nM
Cc1sc2c(c1NC(=O)NS(=O)(=O)N(c1cnn(C)c1F)C1CCCN(C)C1)CCC2 (stereo not shown) [Compound 119, 1-[(5-Fluoro-1-methyl-1H-pyrazol-4-yl)(1-methylpiperidin-3-yl)sulfamoyl]-3-{2-methyl-4H,5H,6H-cyclopenta[b]thiophen-3-yl}urea]	< 1000 nM	< 100 nM
Cc1sc2c(c1NC(=O)NS(=O)(=O)N(c1cnn(C)c1F)C1CCN(C)CC1)CCC2 [Compound 120, 1-[(5-Fluoro-1-methyl-1H-pyrazol-4-yl)(1-methylpiperidin-4-yl)sulfamoyl]-3-{2-methyl-4H,5H,6H-cyclopenta[b]thiophen-3-yl}urea]	1000 to 3000 nM	< 100 nM

More lines, main results first:

IC50 [1]	Compound	IC50 [2]
3000 to 10000 nM	CC(C)c1cc(NC(=O)NS(=O)(=O)N(c2cnn(C)c2)C2CCCN(C)C2)c(C(F)(F)F)s1 (stereo not shown) [Compound 121, 1-[(1-Methyl-1H-pyrazol-4-yl)(1-methylpiperidin-3-yl)sulfamoyl]-3-[5-(propan-2-yl)-2-(trifluoromethyl)thiophen-3-yl]urea]	100 to 500 nM
10000 to 20000 nM	CN1CCCC(N(c2cnn(C)c2)S(=O)(=O)NC(=O)Nc2c(C(C)(C)C)sc3c2CCC3)C1 (stereo not shown) [Compound 122, 3-{2-Tert-butyl-4H,5H,6H-cyclopenta[b]thiophen-3-yl}-1-[(1-methyl-1H-pyrazol-4-yl)(1-methylpiperidin-3-yl)sulfamoyl]urea]	500 to 1000 nM
1000 to 3000 nM	CC(C)c1sc(Cl)cc1NC(=O)NS(=O)(=O)N(c1cnn(C)c1)C1CCN(C)CC1 [Compound 123, 3-[5-Chloro-2-(propan-2-yl)thiophen-3-yl]-1-[(1-methyl-1H-pyrazol-4-yl)(1-methylpiperidin-4-yl)sulfamoyl]urea]	< 100 nM
> 20000 nM	Cc1nsc(C(C)C)c1NC(=O)NS(=O)(=O)N(c1cnn(C)c1)C1CCCN(C)C1 (stereo not shown) [Compound 124, 1-[(1-Methyl-1H-pyrazol-4-yl)(1-methylpiperidin-3-yl)sulfamoyl]-3-[3-methyl-5-(propan-2-yl)-1,2-thiazol-4-yl]urea]	> 10000 nM
< 1000 nM	Cc1sc2c(c1NC(=O)NS(=O)(=O)N(c1cnn(C)c1)[C@H]1CCN(C)C1)CCC2 [Compound 125, 1-[(1-Methyl-1H-pyrazol-4-yl)[(3S)-1-methylpyrrolidin-3-yl]sulfamoyl]-3-{2-methyl-4H,5H,6H-cyclopenta[b]thiophen-3-yl}urea]	< 100 nM
< 1000 nM	Cc1sc2c(c1NC(=O)NS(=O)(=O)N(c1cnn(C)c1)[C@@H]1CCN(C)C1)CCC2 [Compound 126, 1-[(1-Methyl-1H-pyrazol-4-yl)[(3R)-1-methylpyrrolidin-3-yl]sulfamoyl]-3-{2-methyl-4H,5H,6H-cyclopenta[b]thiophen-3-yl}urea]	< 100 nM
< 1000 nM	Cc1cc(NC(=O)NS(=O)(=O)N(c2cnn(C)c2)[C@H]2CCN(C)C2)c(C(C)C)s1 [Compound 127, 1-[(1-Methyl-1H-pyrazol-4-yl)[(3S)-1-methylpyrrolidin-3-yl]sulfamoyl]-3-[5-methyl-2-(propan-2-yl)thiophen-3-yl]urea]	< 100 nM
< 1000 nM	CC(C)c1sc(Cl)cc1NC(=O)NS(=O)(=O)N(c1cnn(C)c1)[C@H]1CCN(C)C1 [Compound 128, 3-[5-Chloro-2-(propan-2-yl)thiophen-3-yl]-1-[(1-methyl-1H-pyrazol-4-yl)-[(3S)-1-methylpyrrolidin-3-yl]sulfamoyl]urea]	< 100 nM
< 1000 nM	CC(C)c1sc(Cl)cc1NC(=O)NS(=O)(=O)N(c1cnn(C)c1)[C@@H]1CCN(C)C1 [Compound 129, 3-[5-Chloro-2-(propan-2-yl)thiophen-3-yl]-1-[(1-methyl-1H-pyrazol-4-yl)-[(3R)-1-methylpyrrolidin-3-yl]sulfamoyl]urea]	< 100 nM
< 1000 nM	Cc1cc(NC(=O)NS(=O)(=O)N(c2cnn(C)c2)[C@@H]2CCN(C)C2)c(C(C)C)s1 [Compound 130, 1-[(1-Methyl-1H-pyrazol-4-yl)[(3R)-1-methylpyrrolidin-3-yl]sulfamoyl]-3-[5-methyl-2-(propan-2-yl)thiophen-3-yl]urea]	< 100 nM
3000 to 10000 nM	CC(C)c1sc(C#N)cc1NC(=O)NS(=O)(=O)N(c1cnn(C)c1)C1CCCN(C)C1 (stereo not shown) [Compound 131, 3-[5-Cyano-2-(propan-2-yl)thiophen-3-yl]-1-[(1-methyl-1H-pyrazol-4-yl)(1-methylpiperidin-3-yl)sulfamoyl]urea]	500 to 1000 nM
